Reference: patent US11524934B2, “Phenylamine compounds” (PI INDUSTRIES LTD., priority 2017, dated 2022)

Key:
Pyricularia oryzae = assay: microbe, parasite or virus in culture; assay type: cell-based; conditions: 168 h, read-out: control
Alternaria solani = Alternaria solani (early blight of tomato/potato) in vitro test, radial growth on Potato Dextrose Agar; conditions: 168 h, read-out: control
Rhizoctonia solani = conditions: 168 h, read-out: control
Botrytis cinerea = Botrytis cinerea (Gray mold) in vitro test, radial growth on Potato Dextrose Agar; conditions: 168 h, read-out: control
Septoria lycopersici = Septoria lycopersici (Leaf spot of tomato) in vitro test, radial growth on Potato Dextrose Agar; conditions: 168 h, read-out: control
Phakopsora pachyrhizi = Phakopsora pachyrhizi test in soybean (in vivo on plants), preventive activity; conditions: preventive spray on soybean plants, inoculated one day after treatment, disease severity rated vs untreated check
Procedure: Example 8 (In Vivo on Plants): Phakopsora pachyrhizi Test in Soybean
Compounds were dissolved in 2% DMSO/Acetone & then mixed with water to the calibrated spray volume of 50 ml and poured into the spray bottles for further applications.
To test the preventive activity of compounds, healthy young soybean plants raised in the greenhouse were sprayed with active compound preparation at the stated application rates inside the spray cabinets using hallowcone nozzles. One day after treatment, the plants were inoculated with spore suspension containing 2.1×10^6 Phakopsora pachyrhizi inoculum. The inoculated plants were then kept in greenhouse chamber at 25° C. temperature & 90% Relative Humidity for disease expression.
A visual assessment of compound's performance was carried out by rating the disease severity (0-100% scale) on treated plants on 3, 7, 10 & 15 days after application. Efficacy (% control) of the compounds was calculated by comparing the disease rating in the treatment with the one of the untreated control. The sprayed plants were also assessed for compound's plant compatibility by recording symptoms like necrosis, chlorosis & stunting.

Compound	inhibition of growth at 300 ppm (Pyricularia oryzae) [%]	inhibition of growth at 300 ppm (Alternaria solani) [%]	inhibition of growth at 300 ppm (Rhizoctonia solani) [%]	inhibition of growth at 300 ppm (Botrytis cinerea) [%]	inhibition of growth at 300 ppm (Septoria lycopersici) [%]	pest or weed control at 500 ppm (Phakopsora pachyrhizi) [%]
CCN(C)C=Nc1cc(C)c(C(=O)COc2cc(Cl)ccc2C)cc1C [Compound 96, N′-(4-(2-(5-chloro-2-methylphenoxy)acetyl)-2,5-dimethylphenyl)-N-ethyl-N-methylformimidamide]	> 70	> 70	> 70	> 70	> 70	
CCN(C)C=Nc1cc(C)c(C(=O)COc2ccc(OC)cc2)cc1C [Compound 10, N-ethyl-N′-(4-(2-(4-methoxyphenoxy)acetyl)-2,5-dimethylphenyl)-N-methylformimidamide]	> 70	> 70	> 70		> 70	> 90
Cc1cc(C(=O)COc2cccc(Cl)c2)c(C)cc1N=CN1CCOCC1 [Compound 40, 2-(3-chlorophenoxy)-1-(2,5-dimethyl-4-((morpholinomethylene)amino)phenyl)ethan-1-one]		> 70				> 90
CCN(C)C=Nc1cc(C)c(C(=O)CSc2ccccc2Br)cc1C [Compound 30, N′-(4-(2-((2-bromophenyl)thio)acetyl)-2,5-dimethylphenyl)-N-ethyl-N-methylformimidamide]	> 70	> 70	> 70	> 70	> 70	
CCN(C)C=Nc1cc(C)c(C(=O)CSc2ccccc2Br)cc1Cl [Compound 39, N′-(4-(2-((2-bromophenyl)thio)acetyl)-2-chloro-5-methylphenyl)-N-ethyl-N-methylformimidamide]						> 90
Cc1cc(C(=O)COc2cccc(Cl)c2)c(C)cc1N=CNC#N [Compound 46, N′-(4-(2-(3-chlorophenoxy)acetyl)-2,5-dimethylphenyl)-N-cyanoformimidamide]						> 90
C=CCN(C)C=Nc1cc(C)c(C(=O)COc2cccc(Cl)c2)cc1C [Compound 43, N-allyl-N′-(4-(2-(3-chlorophenoxy)acetyl)-2,5-dimethylphenyl)-N-methylformimidamide]						> 90
CCN(C)C=Nc1cc(C)c(C(=O)CSc2ccccc2)cc1C [Compound 1, N′-(2,5-dimethyl-4-(2-(phenylthio)acetyl)phenyl)-N-ethyl-N-methylformimidamide]	> 70	> 70	> 70	> 70	> 70	> 90
CCN(C)C=Nc1cc(C)c(C(=O)COc2ccc(Cl)cc2Cl)cc1C [Compound 94, N′-(4-(2-(2,4-dichlorophenoxy)acetyl)-2,5-dimethylphenyl)-N-ethyl-N-methylformimidamide]	> 70	> 70	> 70	> 70	> 70	
CCN(C)C=Nc1cc(C)c(C(=O)COc2cccc(C)c2)cc1Cl [Compound 26, N′-(2-chloro-5-methyl-4-(2-(m-tolyloxy)acetyl)phenyl)-N-ethyl-N-methylformimidamide]		> 70				> 90
CCN(C)C=Nc1cc(C)c(C(=O)CSc2ncc(C(F)(F)F)cc2Cl)cc1C [Compound 18, N′-(4-(2-((3-chloro-5-(trifluoromethyl)pyridin-2-yl)thio)acetyl)-2,5-dimethylphenyl)-N-ethyl-N-methylformimidamide]	> 70	> 70	> 70	> 70		> 90
C=CCN(C)C=Nc1cc(C)c(C(=O)CSc2ccc(C)c(C)c2)cc1C [Compound 48, N-allyl-N′-(4-(2-((3,4-dimethylphenyl)thio)acetyl)-2,5-dimethylphenyl)-N-methylformimidamide]						> 90
CCN(C)C=Nc1cc(C)c(C(=O)CSc2ccc(Cl)c(Cl)c2)cc1Cl [Compound 50, N′-(2-chloro-4-(2-((3,4-dichlorophenyl)thio)acetyl)-5-methylphenyl)-N-ethyl-N-methylformimidamide]						> 90
CCN(C)C=Nc1cc(C)c(C(=O)CSc2ccc(Cl)cc2)cc1Cl [Compound 38, N′-(2-chloro-4-(2-((4-chlorophenyl)thio)acetyl)-5-methylphenyl)-N-ethyl-N-methylformimidamide]						> 90
CCN(C)C=Nc1cc(C)c(C(=O)COc2ccc(Cl)cc2)cc1C [Compound 16, N′-(4-(2-(4-chlorophenoxy)acetyl)-2,5-dimethylphenyl)-N-ethyl-N-methylformimidamide]	> 70	> 70			> 70	
CCN(C)C=Nc1cc(C)c(C(=O)COc2ccc(C)cc2Cl)cc1C [Compound 93, N′-(4-(2-(2-chloro-4-methylphenoxy)acetyl)-2,5-dimethylphenyl)-N-ethyl-N-methylformimidamide]	> 70	> 70	> 70	> 70	> 70	
CCN(C)C=Nc1cc(C)c(C(=O)COc2ccccc2Br)cc1Cl [Compound 31, N′-(4-(2-(2-bromophenoxy)acetyl)-2-chloro-5-methylphenyl)-N-ethyl-N-methylformimidamide]	> 70	> 70	> 70		> 70	
CCN(C)C=Nc1cc(C)c(C(=O)CSc2ccc(Cl)c(Cl)c2)cc1C [Compound 8, N′-(4-(2-((3,4-dichlorophenyl)thio)acetyl)-2,5-dimethylphenyl)-N-ethyl-N-methylformimidamide]	> 70	> 70	> 70	> 70		> 90
CCN(C)C=Nc1cc(C)c(C(=O)COc2ccc(F)cc2)cc1C [Compound 33, N-ethyl-N′-(4-(2-(4-fluorophenoxy)acetyl)-2,5-dimethylphenyl)-N-methylformimidamide]	> 70	> 70	> 70		> 70	
CCN(C)C=Nc1cc(C)c(C(=O)COc2ccc(F)cc2)cc1Cl [Compound 45, N′-(2-chloro-4-(2-(4-fluorophenoxy)acetyl)-5-methylphenyl)-N-ethyl-N-methylformimidamide]						> 90
Cc1cc(C(=O)COc2cccc(Cl)c2)c(C)cc1N=CN(C)C(C)C [Compound 42, N′-(4-(2-(3-chlorophenoxy)acetyl)-2,5-dimethylphenyl)-N-isopropyl-N-methylformimidamide]	> 70	> 70	> 70		> 70	> 90
Cc1cc(C(=O)COc2cccc(Cl)c2)c(C)cc1N=CN1CCCCC1 [Compound 41, 2-(3-chlorophenoxy)-1-(2,5-dimethyl-4-((piperidin-1-ylmethylene)amino)phenyl)ethan-1-one]		> 70	> 70			> 90
CCN(C)C=Nc1cc(C)c(C(=O)COc2ccccc2F)cc1Cl [Compound 44, N′-(2-chloro-4-(2-(2-fluorophenoxy)acetyl)-5-methylphenyl)-N-ethyl-N-methylformimidamide]						> 90
Cc1ccc(SCC(=O)c2cc(C)c(N=CN(C)C(C)C)cc2C)cc1C [Compound 47, N′-(4-(2-((3,4-dimethylphenyl)thio)acetyl)-2,5-dimethylphenyl)-N-isopropyl-N-methylformimidamide]	> 70	> 70	> 70			> 90
Cc1ccc(SCC(=O)c2cc(C)c(N=CN3CCOCC3)cc2C)cc1C [Compound 49, 1-(2,5-dimethyl-4-((morpholinomethylene)amino)phenyl)-2-((3,4-dimethylphenyl)thio)ethan-1-one]						> 90
CCN(C)C=Nc1cc(C)c(C(=O)COc2ccccc2Br)cc1C [Compound 34, N′-(4-(2-(2-bromophenoxy)acetyl)-2,5-dimethylphenyl)-N-ethyl-N-methylformimidamide]	> 70	> 70	> 70		> 70	
CCN(C)C=Nc1cc(C)c(C(=O)COc2cc(C)ccc2C)cc1C [Compound 95, N′-(4-(2-(2,5-dimethylphenoxy)acetyl)-2,5-dimethylphenyl)-N-ethyl-N-methylformimidamide]	> 70	> 70	> 70	> 70	> 70	
